Measurements: patent US20050260264A1, “Dosage form for delivery of multiple drug forms” (priority 2004, published 2005)
Counter-ions that a name gives are not always drawn. Like-named read-outs stand apart in the source and are kept apart here.

What was measured:
[1] = solubility of the pharmaceutical agent in water; format: physicochemical
Protocol: As defined herein, the solubility of a pharmaceutical agent is determined by adding the pharmaceutical agent to stirred or agitated de-ionized water maintained in a constant temperature bath at a temperature of 37° C. until no more pharmaceutical agent dissolves. The resulting solution saturated with the pharmaceutical agent is then filtered, typically under pressure through a 0.8-micron Millipore filter, and the concentration of the pharmaceutical agent in the solution is measured by any appropriate analytical method including gravimetric, ultraviolet spectrophometry, chromatography, and the like. The solubility of the pharmaceutical agent is measured at saturated concentration.

[2] = osmotic pressure of the drug; format: physicochemical

## CCC(=O)O[C@](Cc1ccccc1)(c1ccccc1)[C@H](C)CN(C)C [propoxyphene base]
[1]
  solubility in water (in words): only slightly soluble

## CNC(=C[N+](=O)[O-])NCCSCc1ccc(CN(C)C)o1.Cl [Ranitidine HCl, ranitidine hydrochloride]
[2]
  osmotic pressure of the drug: 95 atmospheres

## CN1CCN(CCCN2c3ccccc3Sc3ccc(Cl)cc32)CC1 [prochlorperazine base]
[1]
  solubility in water (aqueous solubility): 0.1 to 1 mg per milliliter

## CN1CCN(CCCN2c3ccccc3Sc3ccc(Cl)cc32)CC1 [prochlorperazine edisilate]
[1]
  solubility in water (aqueous solubility): about 500 mg per milliliter

## CCC(=O)O[C@](Cc1ccccc1)(c1ccccc1)[C@H](C)CN(C)C [propoxyphene hydrochloride]
[1]; hydrochloride
  solubility in water (in words): freely soluble
